Laboratory results from US20060079512A1, “Dibenzodiazepinone analogues, processes for their production and their use as pharmaceuticals” (Ecopia BioSciences, Inc., priority 2003, published 2006).
Entries after “also recorded” stand apart in the source; their conditions may differ. Read-outs that look alike come from different tables or passages of the source.

Experiments:
36 cancer cell lines = experiment: Anticancer activity profiling against 36 cell lines (IC50); type: cell-based
Experimental: Compounds were dissolved at 10 mM in DMSO. Dilution in vehicle to concentrations of 30, 10, 3, 1 and 0.3 μM were prepared immediately before assays. Depending on the cell line's growth characteristics, 4000-10000 cells were plated in two 96-wells pates (day 0) and incubated for 16 hours. The following day, propidium iodide was added to one of the two plates and fluorescence measured (Tz). Test compounds were added to the second plate, as well as vehicle control, and cells further incubated for 96 hours. Each compound was tested at each concentration and in triplicates. The equivalent cell number was determined after adding propidium iodide by measuring the signal by fluorescence (C for control).

C6 glioblastoma [1] = experiment: In vivo efficacy in glioma model, first series (treatment started 24 hrs after inoculation); parameters: species or system Mus musculus nude mice
Experimental: The aim of this study was to test whether Compound 1 administered by the i.p. route prevents or delays tumor growth in C6 glioblastoma cell-bearing mice, and to determine an effective dosage regimen.
(§1) Animal experiments were performed according to ethical guidelines of animal experimentation (Charte du comité d'éthique du CNRS, juillet 2003) and the English guidelines for the welfare of animals in experimental neoplasia (WORKMAN, P., […], P., BALKWILL, F., et al. (1998). United Kingdom Coordinating Committee on Cancer Research (UKCCCR) Guidelines for the welfare of animals in experimental neoplasia (Second Edition, July 1997; British Journal of Cancer, 77:1-10). Any dead or apparently sick mice were promptly removed and replaced with healthy mice. Sick mice were euthanized upon removal from the cage. Animals were maintained in rooms under controlled conditions of temperature (23±2° C.), humidity (45±5%), photoperiodicity (12 hrs light/12 hrs dark) and air exchange. Animals were housed in polycarbonate cages (5/single cage) that were equipped to provide food and water. Animal bedding consisted of sterile wood shavings that were replaced every other day. Food was provided ad libitum, being placed in the metal lid on the top of the cage. Autoclaved tap water was provided ad libitum. Water bottles were equipped with rubber stoppers and sipper tubes. Water bottles were cleaned, sterilized and replaced once a week. Two different numbers engraved on two earrings identified the animals. Each cage was labeled with a specific code.
(§2) Tumor Cell Line: The C6 cell line was cloned from a rat glial tumor induced by N-nitrosomethyurea (NMU) according to Premont et al. (Premont J, Benda P, Jard S., [3H] norepinephrine binding by rat glial cells in culture. Lack of correlation between binding and adenylate cyclase activation. Biochim Biophys Acta. 1975 Feb. 13;381(2):368-76.) after series of alternate culture and animal passages. Cells were grown as adherent monolayers at 37° C. in a humidified atmosphere (5% CO2, 95% air). The culture medium was DMEM supplemented with 2 mM L-glutamine and 10% fetal bovine serum. For experimental use, tumor cells were detached from the culture flask by a 10 min treatment with trypsin-versen. The cells were counted in a hemocytometer and their viability assessed by 0.25% trypan blue exclusion.
(§3) Preparation of the Test Article: For the test article, the following procedure was followed for reconstitution (performed immediately preceding injection). The vehicle consisted of a mixture of benzyl alcohol (1.5%), ethanol (8.5%), propylene glycol (27%), PEG 400 (27%), dimethylacetamide (6%) and water (30%). The vehicle solution was first vortexed in order to obtain a homogeneous liquid. 0.6 mL of the vortexed vehicle solution was added to each vial containing the test article (Compound 1). Vials were mixed thoroughly by vortexing for 1 minute and inverted and shaken vigorously. Vials were mixed again prior to injection into each animal.
(§4) Animal Inoculation with tumor cells: Experiment started at day 0 (D0). On D0, mice received a superficial intramuscular injection of C6 tumor cells (5×10^5 cells) in 0.1 mL of DMEM complete medium into the upper right posterior leg.
In a first series of experiments, treatment started 24 hrs following inoculation of C6 cells. On the day of the treatment, each mouse was slowly injected with 100 μL of test or control articles by the i.p. route. For all groups, treatment was performed until the tumor volume of the saline-treated mice (group 1) reached approximately 3 cm^3 (around day 16). Mice of group 1 were treated daily with a saline isosmotic solution for 16 days. Mice of group 2 were treated daily with the vehicle solution for 16 days. Mice of group 3 were treated daily with 10 mg/kg of Compound 1 for 16 days. Mice of group 4 were treated every two days with 30 mg/kg of Compound 1 and received 8 treatments. […]

C6 glioblastoma [2] = experiment: In vivo efficacy in glioma model, second series (treatment started at day 10); parameters: species or system Mus musculus nude mice; conditions: for Tumor volume (mm^3) (mean ± SEM): Q1 × 5; for % Inhibition: Q1 × 5, vs saline
Experimental: as §1, §2, §3, §4
In a second series of experiments, treatment started at day 10 following inoculation of C6 cells when tumors became palpable (around 100 to 200 mm^3). Treatment was repeated daily for 5 consecutive days. On the day of the treatment, each mouse was slowly injected with 100 μL of Compound 1 by i.p. route. Mice of group 1 were treated daily with saline isosmotic solution. Mice of group 2 were treated daily with the vehicle solution. Mice of group 3 were treated daily with 20 mg/kg of Compound 1. Mice of group 4 were treated daily with 30 mg/kg of Compound 1. Mice were treated until the tumor volume of the saline-treated control mice (group 1) reached around 4 cm^3. Tumor volume was measured every second day until the end of the treatment using callipers. […] An asterisk in the P value column of Table 20 indicates a statistically significant value, while “ns” signifies not significant.

In the case of `CC(C)=CCC/C(C)=C/CC/C(C)=C/CN1C(=O)c2cccc(O)c2N(C)c2c(O)cc(O)cc21` [Compound 2, 10-farnesyl-4,6,8-trihydroxy-5-methyl-5,10-dihydro-dibenzo[b,e][1,4]diazepin-11-one], the “levels of IC50 values” (36 cancer cell lines; 36 tumor types) is reported as “low micromolar to nanomolar”, the IC50 (36 cancer cell lines; Bladder, cell line 1218L (Xenograft), urothelial adeno ca, read-out: IC50) is reported as 166 nM and the IC50 (36 cancer cell lines; Bladder, cell line T24 (ATCC), transitional cell ca, read-out: IC50) is reported as 127 nM. For the same compound, the IC50 (36 cancer cell lines; CNS, cell line SF268 (NCI), read-out: IC50) was 10 nM, the IC50 (36 cancer cell lines; Gastric, cell line 251L (Xenograft), adeno ca, pd, read-out: IC50) was 105 nM and the IC50 (36 cancer cell lines; Head & Neck, cell line 536L (Xenograft), hypopharynx ca, read-out: IC50) was 181 nM. It also gave an IC50 (36 cancer cell lines; Homo sapiens, 22Rv1, Prostate, cell line 22RV1 (ATCC), adeno ca, md, read-out: IC50) of 142 nM, an IC50 (36 cancer cell lines; Homo sapiens, CNS cell, CNS, cell line 498NL (Xenograft), glioblastoma, read-out: IC50) of 176 nM and an IC50 (36 cancer cell lines; Homo sapiens, DU-145, Prostate, cell line DU145 (NCI), adeno ca, md, read-out: IC50) of 158 nM. It also gave an IC50 (36 cancer cell lines; Homo sapiens, HCT-116, Colon, cell line HCT116 (NCI), adeno ca, pd, read-out: IC50) of 156 nM, an IC50 (36 cancer cell lines; Homo sapiens, HT-29, Colon, cell line HT29 (NCI), adeno ca, pd, read-out: IC50) of 223 nM and an IC50 (36 cancer cell lines; Homo sapiens, LNCaP, Prostate, cell line LNCAP (DSMZ), adeno ca, md, read-out: IC50) of 485 nM. For the same compound, the IC50 (36 cancer cell lines; Homo sapiens, MCF7, Mammary, cell line MCF7 (NCI), mamma ca, read-out: IC50) was 276 nM, the IC50 (36 cancer cell lines; Homo sapiens, NCI-H460, Lung, cell line H460 (NCI), large cell ca, read-out: IC50) was 366 nM and the IC50 (36 cancer cell lines; Homo sapiens, OVCAR-3, Ovarian, cell line OVCAR3 (NCI), adeno ca, md, read-out: IC50) was 139 nM. The IC50 (36 cancer cell lines; Homo sapiens, PANC-1, Pancreas, cell line PANC1 (ATCC), read-out: IC50) was 125 nM, the IC50 (36 cancer cell lines; Homo sapiens, PC-3M, Prostate, cell line PC3M (NCI), adeno ca, pd, read-out: IC50) was 114 nM and the IC50 (36 cancer cell lines; Lung, cell line 289L (Xenograft), adeno ca, read-out: IC50) was 1550 nM. The IC50 (36 cancer cell lines; Lung, cell line 526L (Xenograft), adeno ca, read-out: IC50) was 104 nM, the IC50 (36 cancer cell lines; Lung, cell line 529L (Xenograft), large cell ca, read-out: IC50) was 127 nM and the IC50 (36 cancer cell lines; Lung, cell line 629L (Xenograft), adeno ca, read-out: IC50) was 164 nM. It also gave an IC50 (36 cancer cell lines; Lung, cell line 1121L (Xenograft), large cell ca, read-out: IC50) of 125 nM, an IC50 (36 cancer cell lines; Mammary, cell line 401NL (Xenograft), pap adeno ca, wd, read-out: IC50) of 194 nM and an IC50 (36 cancer cell lines; Melanoma, cell line 276L (Xenograft), mm, amelanotic, read-out: IC50) of 1950 nM. The IC50 (36 cancer cell lines; Melanoma, cell line 394NL (Xenograft), mm, amelanotic, pd, read-out: IC50) was 20 nM, the IC50 (36 cancer cell lines; Melanoma, cell line 462NL (Xenograft), mm, amelanotic, read-out: IC50) was 978 nM and the IC50 (36 cancer cell lines; Melanoma, cell line 514L (Xenograft), mm, melanotic, read-out: IC50) was 110 nM. It also gave an IC50 (36 cancer cell lines; Melanoma, cell line 520L (Xenograft), mm, melanotic, read-out: IC50) of 85 nM, an IC50 (36 cancer cell lines; Ovarian, cell line 899L (Xenograft), pap serous ca, md, read-out: IC50) of 238 nM and an IC50 (36 cancer cell lines; Ovarian, cell line 1619L (Xenograft), adeno ca, md, read-out: IC50) of 579 nM. The IC50 (36 cancer cell lines; Pancreas, cell line 1657L (Xenograft), adeno ca, md, read-out: IC50) was 1780 nM, the IC50 (36 cancer cell lines; Pleuramesot., cell line 1752L (Xenograft), pleuromesothelioma, read-out: IC50) was 1500 nM and the IC50 (36 cancer cell lines; Renal, cell line 393NL (Xenograft), hypernephroma, wd, read-out: IC50) was 527 nM. For the same compound, the IC50 (36 cancer cell lines; Renal, cell line 486L (Xenograft), hypernephroma, pd, read-out: IC50) was 1140 nM, the IC50 (36 cancer cell lines; Renal, cell line 944L (Xenograft), hypernephroma, read-out: IC50) was 230 nM and the IC50 (36 cancer cell lines; Renal, cell line 1781L (Xenograft), renal ca, read-out: IC50) was 172 nM. The IC50 (36 cancer cell lines; Uterus, cell line 1138L (Xenograft), carcinosarcoma, wd, read-out: IC50) was 139 nM and the IC50 (36 cancer cell lines; mean of all 36 cell lines, read-out: IC50, Mean of all cell lines) was 407 nM.

`CC(C)=CCC/C(C)=C/CC/C(C)=C/CN1C(=O)c2cccc(O)c2Nc2c(O)cc(O)cc21` [Compound 1, 10-farnesyl-4,6,8-trihydroxy-5,10-dihydrodibenzo[b,e][1,4]diazepin-11-one] was tested, and the “Tumor volume (mm^3) (mean ± SEM)” value (C6 glioblastoma [1]; 10 mg/kg i.p., Q1 × 16) was 1,220.4 ± 283.46 mm^3, the “% Inhibition” value (C6 glioblastoma [1]; 10 mg/kg i.p., Q1 × 16, vs saline) was 59.4% and the “Tumor volume (mm^3) (mean ± SEM)” value (C6 glioblastoma [1]; 30 mg/kg i.p., Q2 × 8) was 1,236.9 ± 233.99 mm^3. The “% Inhibition” value (C6 glioblastoma [1]; 30 mg/kg i.p., Q2 × 8, vs saline) was 58.8%, the “Tumor volume (mm^3) (mean ± SEM)” value (C6 glioblastoma [1]; 30 mg/kg i.p., Q3 × 6) was 1,184.1 ± 221.45 mm^3 and the “% Inhibition” value (C6 glioblastoma [1]; 30 mg/kg i.p., Q3 × 6, vs saline) was 60.6%. The “mean value of the tumor volume of all treated groups” value (C6 glioblastoma [1]; 10-30 mg/kg i.p., compared to the saline group) was “significantly reduced”, the “Tumor volume (mm^3) (mean ± SEM)” value (C6 glioblastoma [2]; 20 mg/kg i.p.) was 1,721.5 ± 374.79 mm^3 and the “% Inhibition” value (C6 glioblastoma [2]; 20 mg/kg i.p.) was 60.5%. The “Tumor volume (mm^3) (mean ± SEM)” value (C6 glioblastoma [2]; 30 mg/kg i.p.) was 1,131.6 ± 525.21 mm^3, the “% Inhibition” value (C6 glioblastoma [2]; 30 mg/kg i.p.) was 74.1% and the “Histological analysis of tumor sections” value (C6 glioblastoma [2]; 20-30 mg/kg) was “cell density of tumor treated with Compound 1 appears decreased; also recorded: cell density was decreased and the nuclei of remaining tumor cells appeared larger and pycnotic”. For the same compound, the “mean value of the tumor volume of all treated groups” value (C6 glioblastoma [2]; 20-30 mg/kg i.p., compared to the saline group) was “significantly reduced”.
